Data set [1] addresses T1, Glutathione reductase (GR) (Homo sapiens, UniProt P00390).
T1 construct: endogenous in cells; host or cells: HeLa
T1 sequence (P00390 44-522): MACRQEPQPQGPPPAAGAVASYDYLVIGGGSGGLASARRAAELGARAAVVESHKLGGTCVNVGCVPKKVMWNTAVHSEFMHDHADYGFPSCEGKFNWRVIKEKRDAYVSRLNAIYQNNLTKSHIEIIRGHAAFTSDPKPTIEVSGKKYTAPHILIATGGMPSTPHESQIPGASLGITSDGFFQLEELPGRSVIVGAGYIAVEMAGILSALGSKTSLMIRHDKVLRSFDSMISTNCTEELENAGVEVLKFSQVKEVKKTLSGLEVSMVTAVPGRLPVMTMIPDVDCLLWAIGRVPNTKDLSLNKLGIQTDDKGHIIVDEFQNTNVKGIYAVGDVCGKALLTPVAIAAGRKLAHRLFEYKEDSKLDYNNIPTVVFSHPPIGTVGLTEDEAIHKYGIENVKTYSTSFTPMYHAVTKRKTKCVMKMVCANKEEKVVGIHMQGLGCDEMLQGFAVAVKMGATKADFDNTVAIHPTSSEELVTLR
In words: Cellular glutathione reductase activity of treated HeLa cells. As to conditions: one-hour treatment. The data set is classed as cell-based. Here is the method: Cells were seeded at 2×10^5/well in 6-well plates and incubated for 24 hours. The metal thiourea compounds (10^−9 to 10^−4 M) were serially diluted and added to the cells (final DMSO concentrations≦1%). After an one-hour incubation, cells were washed thrice with phosphate buffered saline and 100 μL ice-cold lysis buffer (50 mM phosphate buffer, pH 7.4, 1 mM EDTA, 0.1% Triton-X 100) were added to the cell layer. Cell lysis was carried on ice for 5 minutes and the cell lysates were collected and stored at −80° C. or assayed immediately.
Cell lysates (10 μg proteins) were added to a mixture containing 100 mM phosphate, pH 7.4, 1 mM EDTA, 1 mM GSSG and 0.2 mM NADPH. Reaction was initiated by adding DTNB (3 mM final) and the increases in O.D.412 nm were measured for 10 min. GR activities were determined by subtracting the increases in O.D.412 nm in the absence of GSSG.

A further data set deals with T2, TrxR1 (Rattus norvegicus, UniProt O89049).
T2 sequence (O89049 1-499): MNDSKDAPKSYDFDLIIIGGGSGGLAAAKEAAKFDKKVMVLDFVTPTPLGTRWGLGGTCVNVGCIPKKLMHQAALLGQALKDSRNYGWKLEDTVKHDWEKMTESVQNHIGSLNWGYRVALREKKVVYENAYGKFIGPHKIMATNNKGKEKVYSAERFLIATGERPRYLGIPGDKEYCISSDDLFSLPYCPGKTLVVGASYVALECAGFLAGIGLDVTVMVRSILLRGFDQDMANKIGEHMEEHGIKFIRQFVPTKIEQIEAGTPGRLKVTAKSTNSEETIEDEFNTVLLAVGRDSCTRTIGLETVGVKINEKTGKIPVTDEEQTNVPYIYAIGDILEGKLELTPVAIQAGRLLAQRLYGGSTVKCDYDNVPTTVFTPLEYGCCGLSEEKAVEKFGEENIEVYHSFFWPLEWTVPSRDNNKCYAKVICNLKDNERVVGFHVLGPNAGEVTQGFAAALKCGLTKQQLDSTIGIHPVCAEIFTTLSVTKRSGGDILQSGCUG
The experiment in a line: In vitro TrxR enzyme assay, with or without NADPH pre-reduction. Type of data set: biochemical. On the procedure: A plot of the kapp against the inhibitor concentrations followed a hyperbolic function (FIG. 8B). This is indicative of a two-step, tight-binding inhibition mechanism: […] DTNB (3 mM) and NADPH (0.2 mM) was then added. The TrxR1 activities were determined as the increases in O.D.412 nm over 10 min.

Data set [2] can be described thus: Cytotoxicity assay (MTT), HeLa. As to conditions: human, HeLa cells.
Method: Cells were seeded in a 96-well flat-bottomed microplate at 20,000 cells/well in 150 μL of growth medium solution. The compounds were dissolved in dimethyl sulfoxide. Serial dilution of each complex was added to each well with final concentration of DMSO≦1%. […] After incubation, 10 μL MTT reagent (5 mg/mL) was added to each well. The microplate was re-incubated at 37° C. in 5% CO2 for 4 h. Solubilization solution (10% SDS in 0.01 M HCl) (100 μL) was added to each well. The microplate was left in an incubator for 24 h. Absorbances at 550 nm were measured by a microplate reader.
Data set [3] is described as follows: Cytotoxicity assay (MTT), HepG2. As to conditions: human, HepG2 cells.
Method: (§1) Cells were seeded in a 96-well flat-bottomed microplate at 20,000 cells/well in 150 μL of growth medium solution. The compounds were dissolved in dimethyl sulfoxide. Serial dilution of each complex was added to each well with final concentration of DMSO≦1%. The microplate was incubated at 37° C., 5% CO2, 95% air in a humidified incubator for 72 h. After incubation, 10 μL MTT reagent (5 mg/mL) was added to each well. The microplate was re-incubated at 37° C. in 5% CO2 for 4 h. Solubilization solution (10% SDS in 0.01 M HCl) (100 μL) was added to each well. The microplate was left in an incubator for 24 h. Absorbances at 550 nm were measured by a microplate reader.
Data set [4] in a line: Cytotoxicity assay (MTT), NCI-H460. As to conditions: human, NCI-H460 cells.
Method: as §1

On to `COc1ccc(N2CCN(c3ccc(OC)cc3)C2=[S+][Au-][S+]=C2N(c3ccc(OC)cc3)CCN2c2ccc(OC)cc2)cc1` [complex 1, [Au(TU)2]Cl], for which the “effect on cellular GR activity” value in data set [1] is on record as “not affected”. The “concentration for half maximal inhibition of TrxR” value on TrxR1 (TrxR 1 nM) is “approximately equal molar concentration”. Further, at TrxR1 (with or without 0.2 mM NADPH pre-reduction), the “inhibition of NADPH reduced TrxR compared with oxidized TrxR” value was “much more efficiently inhibited”. The IC50 at 72 h in data set [2] is 14.6 ± 0.7 µM; in data set [3], 17.4 ± 1 µM; in data set [4], 3.72 ± 0.3 µM.

A word on the IC50: it is the point on the concentration scale where inhibition reaches its midpoint. Low values mean higher potency, high ones lower potency.
